What follows are molecules tested on HIV-1 (H9IIIB strain) (assay: Cell-Based HIV Infection Assay Using a Reporter (MT4-GFP cells)). Conditions: Human immunodeficiency virus 1, inflection point (IP) of viral growth inhibition; MT4-GFP cells infected with HIV-1 H9IIIB; 50% normal human serum; mean of at least two independent experiments; read-out: Cell Based IP (50% NHS).
Outline: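 MT4-GFP cells (HIV LTR-driven GFP) bulk-infected with HIV-1 H9IIIB at low MOI for 24 h, washed, then exposed to compounds in RPMI plus 50% normal human serum, 0.4% DMSO. Infected cells counted at 24 and 48 h; R0 = 48 h/24 h ratio, inhibition normalised to DMSO and triple-drug control; IP from 4-parameter fit.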
CO[C@H]1CC[C@H]([C@H](c2ccc(Cl)cc2)[C@H](N)C(=O)Nc2cncc(F)c2CC[C@H]2CN[C@@H]3CCCS(=O)(=O)N2C3)CC1 [Example 239, (2S,3R)-2-amino-3-(4-chlorophenyl)-N-(4-(2-((6R,9S)-2,2-dioxido-2-thia-1,7-diazabicyclo[4.3.1]decan-9-yl)ethyl)-5-fluoropyridin-3-yl)-3-((1r,4R)-4-methoxycyclohexyl)propanamide] showed an EC50 of 5.6 nM. CCO[C@H]1CC[C@H]([C@H](c2ccc(Cl)c(F)c2)[C@H](N)C(=O)Nc2cncc(F)c2CC[C@H]2CN[C@@H]3CCCS(=O)(=O)N2C3)CC1 [Example 253, (βR)-4-chloro-N-(4-{2-[(6R,9S)-2,2-dioxido-2-thia-1,7-diazabicyclo[4.3.1]dec-9-yl]ethyl}-5-fluoropyridin-3-yl)-β-[(1r,4R)-4-ethoxycyclohexyl]-3-fluoro-L-phenylalaninamide] gave an EC50 of 5.8 nM. With N[C@H](C(=O)Nc1cccc(F)c1CCC1CNC2CCCS(=O)(=O)N1C2)[C@H](c1ccc(F)cc1)C1CC(F)(F)C1 (stereo partly drawn) [Example 64, (βS)-β-(3,3-difluorocyclobutyl)-N-{2-[2-(2,2-dioxido-2-thia-1,7-diazabicyclo[4.3.1]dec-9-yl)ethyl]-3-fluorophenyl}-4-fluoro-L-phenylalaninamide] the EC50 was 260 nM. In the case of COC(=O)N[C@H](C(=O)Nc1cccc(F)c1CC[C@H]1CN[C@@H]2CCCS(=O)(=O)N1C2)[C@@H](c1ccc(F)cc1)c1cnc(C(F)(F)F)nc1 [Example 22, Methyl [(1S)-2-[(2-{2-[(6R,9S)-2,2-dioxido-2-thia-1,7-diazabicyclo[4.3.1]dec-9-yl]ethyl}-3-fluorophenyl)amino]-1-{(S)-(4-fluorophenyl)[2-(trifluoromethyl)pyrimidin-5-yl]methyl}-2-oxoethyl]carbamate], the EC50 is reported as 15 nM. COC(=O)N[C@H](C(=O)Nc1ccc(F)c(F)c1CC[C@H]1CN[C@@H]2CCCS(=O)(=O)N1C2)[C@@H](c1ccc(F)cc1)C1CCOC(C)(C)C1 (stereo partly drawn) [Example 28, Methyl [(1S,2R)-2-(2,2-dimethyltetrahydro-2H-pyran-4-yl)-1-[(2-{2-[(6R,9S)-2,2-dioxido-2-thia-1,7-diazabicyclo[4.3.1]dec-9-yl]ethyl}-3,4-difluorophenyl)carbamoyl]-2-(4-fluorophenyl)ethyl]carbamate] showed an EC50 of 13 nM. COC(=O)N[C@H](C(=O)Nc1cccc(F)c1CCC1CNC2CCCS(=O)(=O)N1C2)[C@@H](c1ccc(Cl)cc1)C1CCOC(CC(F)(F)F)C1 (stereo partly drawn) [Example 172, methyl {(1S,2R)-2-(4-chlorophenyl)-1-({2-[2-(2,2-dioxido-2-thia-1,7-diazabicyclo[4.3.1]dec-9-yl)ethyl]-3-fluorophenyl}carbamoyl)-2-[2-(2,2,2-trifluoroethyl)tetrahydro-2H-pyran-4-yl]ethyl}carbamate] gave an EC50 of 38 nM. With CCOC(=O)N1CCC(c2ccc(Cl)cc2)([C@H](NC(=O)OC)C(=O)Nc2cccc(F)c2CC[C@H]2CN[C@@H]3CCCS(=O)(=O)N2C3)CC1 [Example 255, ethyl 4-(4-chlorophenyl)-4-{(1S)-2-[(2-{2-[(6R,9S)-2,2-dioxido-2-thia-1,7-diazabicyclo[4.3.1]dec-9-yl]ethyl}-3-fluorophenyl)amino]-1-[(methoxycarbonyl)amino]-2-oxoethyl}piperidine-1-carboxylate] the EC50 was 18 nM. For COC(=O)N[C@H](C(=O)Nc1cccc(F)c1CCC1CNC2CCCS(=O)(=O)N1C2)[C@H](c1cncc(C(F)(F)F)c1)c1ccc(Cl)c(F)c1 (stereo partly drawn) [Example 19, Methyl {(1S,2S)-2-(4-chloro-3-fluorophenyl)-1-({2-[2-(2,2-dioxido-2-thia-1,7-diazabicyclo[4.3.1]dec-9-yl)ethyl]-3-fluorophenyl}carbamoyl)-2-[5-(trifluoromethyl)pyridin-3-yl]ethyl}carbamate], the EC50 was 5.2 nM. COC(=O)N[C@H](C(=O)N[C@H]1CCCC[C@@H]1CC[C@H]1CN[C@@H]2CCCS(=O)(=O)N1C2)[C@@H](c1ccc(Cl)cc1)C(C)C [Example 96, methyl [(1S,2S)-2-(4-chlorophenyl)-1-{[(1S,2R)-2-{2-[(6R,9S)-2,2-dioxido-2-thia-1,7-diazabicycIo[4.3.1]dec-9-yl]ethyl}cyclohexyl]carbamoyl}-3-methylbutyl]carbamate] gave an EC50 of 180 nM. CO[C@H]1CC[C@H]([C@H](c2ccc(F)cc2)[C@H](N)C(=O)Nc2ccc(F)c(F)c2CC[C@H]2CN[C@@H]3CCCS(=O)(=O)N2C3)CC1 [Example 180, (βR)-N-(2-{2-[(6R,9S)-2,2-dioxido-2-thia-1,7-diazabicyclo[4.3.1]dec-9-yl]ethyl}-3,4-difluorophenyl)-4-fluoro-β-[(1r,4R)-4-methoxycyclohexyl]-L-phenylalaninamide] showed an EC50 of 11 nM. COC(=O)N[C@H](C(=O)Nc1cncc(F)c1CC[C@H]1CN[C@@H]2CCCS(=O)(=O)N1C2)[C@@H](c1ccc(Cl)cc1)C1CCOCC1 [Example 174, methyl [(1S,2R)-2-(4-chlorophenyl)-1-[(4-{2-[(6R,9S)-2,2-dioxido-2-thia-1,7-diazabicyclo[4.3.1]dec-9-yl]ethyl}-5-fluoropyridin-3-yl)carbamoyl]-2-(tetrahydro-2H-pyran-4-yl)ethyl]carbamate] showed an EC50 of 89 nM. COC(=O)N[C@H](C(=O)Nc1cncc(F)c1CC[C@H]1CN[C@@H]2CCCS(=O)(=O)N1C2)[C@@H](c1ccc(Cl)cc1)[C@H]1CC[C@H](C(F)(F)F)CC1 [Example 256, methyl {(1S,2R)-2-(4-chlorophenyl)-1-[(4-{2-[(6R,9S)-2,2-dioxido-2-thia-1,7-diazabicyclo[4.3.1]dec-9-yl]ethyl}-5-fluoropyridin-3-yl)carbamoyl]-2-[(1r,4R)-4-(trifluoromethyl)cyclohexyl]ethyl}carbamate] gave an EC50 of 8.2 nM. For CC1(C)CC([C@H](c2ccc(Cl)cc2)[C@H](NCC2CC2)C(=O)N[C@H]2CCC[C@@H]2CC[C@H]2CN[C@@H]3CCCS(=O)(=O)N2C3)CCO1 (stereo partly drawn) [Example 181, (βR)-4-chloro-Nα-(cyclopropylmethyl)-β-(2,2-dimethyltetrahydro-2H-pyran-4-yl)-N-[(1S,2R)-2-{2-[(6R,9S)-2,2-dioxido-2-thia-1,7-diazabicyclo[4.3.1]dec-9-yl]ethyl)cyclopentyl]-L-phenylalaninamide], the EC50 was 640 nM. In the case of COC(=O)N[C@H](C(=O)Nc1cccc(F)c1CC[C@H]1CNC2CCCS(=O)(=O)N1C2)[C@@H](c1ccc(Cl)cc1)C1CCS(=O)(=O)CC1 (stereo partly drawn) [Example 159, methyl {(1S,2R)-2-(4-chlorophenyl)-2-(1,1-dioxidotetrahydro-2H-thiopyran-4-yl)-1-[(2-{2-[(9S)-2,2-dioxido-2-thia-1,7-diazabicyclo[4.3.1]dec-9-yl]ethyl}-3-fluorophenyl)carbamoyl]ethyl}carbamate], the EC50 is reported as 720 nM. COC(=O)N[C@H](C(=O)Nc1cccc(F)c1CCC1CN[C@@H]2CCCS(=O)(=O)N1C2)[C@H](CC(C)C)c1ccc(F)cc1 (stereo partly drawn) [Example 90, methyl [(1S,2R)-1-[(2-{2-[(6R)-2,2-dioxido-2-thia-1,7-diazabicyclo[4.3.1]dec-9-yl]ethyl}-3-fluorophenyl)carbamoyl]-2-(4-fluorophenyl)-4-methylpcnlyl]carbamate] gave an EC50 of 23 nM. N[C@H](C(=O)Nc1cccc(F)c1CC[C@H]1CN[C@@H]2CCCS(=O)(=O)N1C2)[C@@H](c1ccc(F)cc1)[C@H]1CC[C@H](O)CC1 [Example 202, (βR)-N-(2-{2-[(6R,9S)-2,2-dioxido-2-thia-1,7-diazabicyclo[4.3.1]dec-9-yl]ethyl}-3-fluorophenyl)-4-fluoro-β-[(1r,4R)-4-hydroxycyclohexyl]-L-phenylalaninamide] showed an EC50 of 89 nM. Work on N[C@H](C(=O)Nc1cccc(F)c1CCC1CNC2CCCS(=O)(=O)N1C2)[C@@H](c1ccc(F)cc1)c1cccc(C(F)(F)F)c1 (stereo partly drawn) [Example 2, (βS)—N-{2-[2-(2,2-Dioxido-2-thia-1,7-diazabicyclo[4.3.1]dec-9-yl)ethyl]-3-fluorophenyl}-β-(4-fluorophenyl)-3-(trifluoromethyl)-L-phenylalaninamide] yielded an EC50 of 6.7 nM. Molecule N[C@H](C(=O)Nc1cccc(F)c1CC[C@H]1CNC[C@@H]2CCCS(=O)(=O)N1C2)[C@@H](c1ccc(Cl)cc1)C1CCOCC1 [Example 274, (2S,3R)-2-Amino-3-(4-chlorophenyl)-N-(2-(2-((6S,10S)-2,2-dioxido-2-thia-1,8-diazabicyclo[4.4.1]undecan-10-yl)ethyl)-3-fluorophenyl)-3-(tetrahydro-2H-pyran-4-yl)propanamide] has an EC50 of 670 nM. COC(=O)N[C@H](C(=O)N[C@H]1CCC[C@@H]1CC[C@H]1CN[C@@H]2CCCS(=O)(=O)N1C2)[C@H](c1cncc(C(F)(F)F)c1)c1ccc(Cl)c(F)c1 [Example 79, methyl {(1S,2S)-2-(4-chloro-3-fluorophenyl)-1-{[(1S,2R)-2-{2-[(6R,9S)-2,2-dioxido-2-thia-1,7-diazabicyclo[4.3.1]dec-9-yl]ethyl}cyclopentyl]carbamoyl}-2-[5-(trifluoromethyl)pyridin-3-yl]ethyl}carbamate] showed an EC50 of 31 nM. C[C@@H]1CC([C@H](c2ccc(F)cc2)[C@H](N)C(=O)N[C@H]2CCC[C@@H]2CC[C@H]2CN[C@@H]3CCCS(=O)(=O)N2C3)C[C@H](C)O1 (stereo partly drawn) [Example 107, (βR)-β-[(2R,4s,6S)-2,6-dimethyltetrahydro-2H-pyran-4-yl]-N-[(1S,2R)-2-{2-[(6R,9S)-2,2-dioxido-2-thia-1,7-diazabicyclo[4.3.1]dec-9-yl]ethyl}cyclopentyl]-4-fluoro-L-phenylalaninamide] gave an EC50 of 84 nM. CO[C@H]1CC[C@](c2ccc(F)cc2)([C@H](N)C(=O)Nc2cccc(F)c2CC[C@H]2CN[C@@H]3CCCS(=O)(=O)N2C3)CC1 [Example 205, (2S)-2-amino-N-(2-{2-[(6R,9S)-2,2-dioxido-2-thia-1,7-diazabicyclo[4.3.1]dec-9-yl]ethyl}-3-fluorophenyl)-2-[trans-1-(4-fluorophenyl)-4-methoxycyclohexyl]ethanamide] was tested, and the EC50 was 130 nM.
